{
  "source": "patent US5348980A",
  "about": "“Enantiomers derived from (S)-2-amino-2-(3,4-dichlorobenzyl)-1-propanol, their use and method of preparation” (Institute de Recherche Jouveinal, priority 1992, dated 1994)",
  "key": {"[1]": {"test_system": "bronchoconstriction caused by 100 μmol/kg of histamine", "experiment": "Histamine-induced bronchoconstriction test (Konzett and Rossler), i.v. administration", "type": "in vivo, guinea pigs", "settings": "for ED50: Cavia porcellus, iv", "excerpt": "(§1) Furthermore, the antihistaminic properties were studied in guinea pigs by the bronchoconstriction test performed according to the method of H. Konzett and R. Rossler (Arch. Exp. Path. Pharmak.--Naunym Schmiedeberg - 195, 71-74, 1940).\n(§2) The products of the invention were studied in this test after administration in solution or in suspension via the intravenous and intraduodenal routes, and also in powder form via the intranasal route.\n(§3) Irrespective of the administration route, the preparation of the animals employed in the test consists in first anesthetizing male guinea pigs weighing 350 to 400 g by intraperitoneal (i.p.) injection of a sterile and isotonic solution containing 25% (w/v.) of ethyl carbamate on the basis of 6.0 ml/kg, and in then fitting the animals with a tracheal cannula to permit measurement of the pulmonary pressure, a cannula in the right jugular vein for the intravenous (i.v.) administration of solution, and also a cannula in the left carotid artery for qualitative observation of the blood pressure.\n(§4) The animals are then connected to a pump (Harvard, ref. 50-1718) in order to maintain an artificial ventilation at a frequency of 60 insufflations per minute; the intratracheal pressure is recorded by an assembly comprising a transducer, an amplifier and a recorder (Gould, respective refs.: PLOEZ, 13-4615-50 and 8188-G4400-06).\n(§5) Fitted in this way, the animals are left undisturbed for 10 minutes before the beginning of the actual experiment, which is carried out in different ways according to the administration route envisaged.\nIn base form, the test products are dissolved in an isotonic solution (0.9% NaCl) containing 10% (v/v) of Transcutol (R). Dilutions are performed by adding isotonic solution. In salt, in particular hydrochloride, form, the solutions are prepared in the isotonic solution.\nThe treatment of the animals consists of a series of administrations of histamine dihydrochloride solution on the basis of 100 μmol/kg before and after treatment with the solution of test product, which is carried out according to the following time schedule:\nt=-20 minutes - histamine (100 μmol/kg)\nt=-10 minutes - ditto control\nt=0 - injection of the test product\nt=+10 minutes - histamine (100 μmol/kg)\n(§6) - Calculation and expression of the results:\n(§7) For each administration route and for each time of administration of histamine, the activity of the products is expressed as the percentage change in amplitude of bronchoconstriction, calculated relative to that produced by the \"control\" administration of histamine which precedes the administration of the test product. The % change is calculated according to the formula: [formula] in which: Bc(tx) represents the amplitude of the bronchoconstriction in mm at time x,\n(§8) Bo(tx) the amplitude of the base-line respiration in mm at time x,\n(§9) Bc(to) and Bo(to) the corresponding amplitudes in mm on receipt of the \"control\" administration of histamine which precedes that of the test product.\n(§10) The inhibitory activity of the test products on histamine-induced bronchoconstriction is expressed at different times of the studies as their ED50, which is the effective dose of product, expressed in μmol/kg, capable of inhibiting 50% of the histamine-induced bronchoconstriction at the time in question.\n(§11) Failing this expression, the results are expressed as a % change at the time in question and for a given concentration of the test product. Under these conditions, a positive percentage corresponds to a potentiating effect on bronchoconstriction and, conversely, a negative percentage to an inhibitory effect.\n(§12) Statistical analyses of the results were carried out by the Student t test. A value of p<0.05 is considered significant.\n(§13) The compounds of the invention described in Examples 1 and 2 were employed in these tests. In addition, as a comparative product for the eutomer of Example 1, the racemic (R,S) compound corresponding to it, and which is described and prepared in Example 7 of U.S. Pat. No. 4,994,617, was employed. […]"}, "[2]": {"test_system": "bronchoconstriction caused by 100 μmol/kg of histamine", "experiment": "Histamine-induced bronchoconstriction test (Konzett and Rossler), intraduodenal (i.d.) administration", "type": "in vivo, guinea pigs", "settings": "for ED50: Cavia porcellus; for ED50, inhibition of histamine-induced bronchoconstriction, t = 20': 20 min", "excerpt": "as §1, §2, §3, §4, §5\nIn base form, the test products are suspended in a solution containing 1% w/v of carboxymethylcellulose (CMC), and, in salt form, they are dissolved in an isotonic solution before being administered via a cannula whose end is placed in the animal's duodenum.\nThe time schedule for the successive administrations of histamine via the i.v. route and that for the test solution via the i.d. route are identical to that described above in a).\nas §6, §7, §8, §9, §10, §11, §12, §13"}, "[3]": {"settings": "10 min, t = 10', read-out: ED50, inhibition of histamine-induced bronchoconstriction, t = 10'"}, "[4]": {"settings": "0.5 h, t = 30', read-out: ED50, inhibition of histamine-induced bronchoconstriction, t = 30'"}, "[5]": {"settings": "40 min, t = 40', read-out: ED50, inhibition of histamine-induced bronchoconstriction, t = 40'"}, "[6]": {"settings": "50 min, t = 50', read-out: ED50, inhibition of histamine-induced bronchoconstriction, t = 50'"}, "[7]": {"settings": "1 h, t = 60', read-out: ED50, inhibition of histamine-induced bronchoconstriction, t = 60'"}},
  "note": "Where a name gives a salt, the structure may show the parent alone.",
  "data": [
    {"compound": "C=CCN(C)[C@](C)(CO)Cc1ccc(Cl)c(Cl)c1", "note": "[Example 2, base, (S)-(+)-N-allyl-2-methylamino-2-(3,4-dichlorobenzyl)-1-propanol]", "values": [
      {"measurement": "ED50", "setting": "[1]; [3]", "value": 1.27, "unit": "µmol/kg"},
      {"measurement": "ED50", "setting": "[1]; 20 min, t = 20', read-out: ED50, inhibition of histamine-induced bronchoconstriction, t = 20'", "value": 0.93, "unit": "µmol/kg"},
      {"measurement": "ED50", "setting": "[1]; [4]", "value": 0.74, "unit": "µmol/kg"},
      {"measurement": "ED50", "setting": "[1]; [5]", "value": 0.96, "unit": "µmol/kg"},
      {"measurement": "ED50", "setting": "[1]; [6]", "value": 1.01, "unit": "µmol/kg"},
      {"measurement": "ED50", "setting": "[1]; [7]", "value": 0.76, "unit": "µmol/kg"},
      {"measurement": "ED50", "setting": "[2]; [4]", "value": 0.59, "unit": "µmol/kg"},
      {"measurement": "ED50", "setting": "[2]; [5]", "value": 0.65, "unit": "µmol/kg"},
      {"measurement": "ED50", "setting": "[2]; [6]", "value": 0.63, "unit": "µmol/kg"},
      {"measurement": "ED50", "setting": "[2]; [7]", "value": 0.62, "unit": "µmol/kg"},
      {"measurement": "ED50, inhibition of histamine-induced bronchoconstriction, t = 20'", "setting": "[2]", "value": 1.45, "unit": "µmol/kg"}
    ]},
    {"compound": "C=CCN(C)[C@](C)(CO)Cc1ccc(Cl)c(Cl)c1", "note": "[Example 2, hydrochloride, (S)-(+)-N-allyl-2-methylamino-2-(3,4-dichlorobenzyl)-1-propanol]", "values": [
      {"measurement": "ED50, inhibition of histamine-induced bronchoconstriction, t = 10'", "setting": "[1]; t = 10', 10 min", "value": 1.68, "unit": "μmol/kg"},
      {"measurement": "ED50, inhibition of histamine-induced bronchoconstriction, t = 20'", "setting": "[1]; t = 20', 20 min", "value": 0.70, "unit": "µmol/kg"},
      {"measurement": "ED50, inhibition of histamine-induced bronchoconstriction, t = 30'", "setting": "[1]; t = 30', 30 min", "value": 0.58, "unit": "µmol/kg"},
      {"measurement": "ED50, inhibition of histamine-induced bronchoconstriction, t = 40'", "setting": "[1]; t = 40', 40 min", "value": 0.57, "unit": "µmol/kg"},
      {"measurement": "ED50, inhibition of histamine-induced bronchoconstriction, t = 50'", "setting": "[1]; t = 50', 50 min", "value": 0.51, "unit": "µmol/kg"},
      {"measurement": "ED50, inhibition of histamine-induced bronchoconstriction, t = 60'", "setting": "[1]; t = 60', 60 min", "value": 0.53, "unit": "µmol/kg"},
      {"measurement": "ED50", "setting": "[2]; [3]", "value": 1.59, "unit": "µmol/kg"},
      {"measurement": "ED50, inhibition of histamine-induced bronchoconstriction, t = 20'", "setting": "[2]", "value": 0.42, "unit": "µmol/kg"},
      {"measurement": "ED50, inhibition of histamine-induced bronchoconstriction, t = 30'", "setting": "[2]; t = 30', 30 min", "value": 0.33, "unit": "µmol/kg"},
      {"measurement": "ED50, inhibition of histamine-induced bronchoconstriction, t = 40'", "setting": "[2]; t = 40', 40 min", "value": 0.48, "unit": "µmol/kg"},
      {"measurement": "ED50, inhibition of histamine-induced bronchoconstriction, t = 50'", "setting": "[2]; t = 50', 50 min", "value": 0.51, "unit": "µmol/kg"},
      {"measurement": "ED50, inhibition of histamine-induced bronchoconstriction, t = 60'", "setting": "[2]; t = 60', 60 min", "value": 0.56, "unit": "µmol/kg"}
    ]}
  ]
}
